Patent publication US20180008593A1 (Purdue Pharma L.P., priority 2005, published 2018)
Several values for one entry are separate records, joined by “and”; a condition that tells them apart may be missing. Identical values can stand only once. Like-named read-outs stand apart in the source and are kept apart here.

Assays:
[1] = tested on: patients with severe chronic pain of tumour and non-tumour origin; conditions: for Mean Pain, Mean (SD) V3: V3 end of titration; for Mean Pain, Mean (SD) V5: V5 end of maintenance
Protocol: The pre-randomization phase consisted of screening and titration/run-in. Following screening, patients entered either a titration or run-in period. Patients with insufficient pain pre-treatment entered a minimum 2-week titration period and were individually titrated and stabilized at an oxycodone dose of 40 mg, 60 mg or 80 mg per day. Patients on stable oxycodone pre-treatment at screening (between 40-80 mg/day) and with concomitant constipation, entered a 1 week run-in period and were eligible for the maintenance phase without prior titration. For all patients, the dose of oxycodone could be adjusted during titration or run-in and investigators maintained compulsory telephone contact every 2nd day to assess pain control and make dose changes.
(§2) a) Mean Pain during the last 7 days prior to each visit, based on the patient's twice-daily assessment of pain intensity using the 0-100 numerical analogue scale (NAS) (0=no pain and 100=worst imaginable pain). Mean Pain was calculated for each study visit as the mean value of the daily mean values of all patient's diary entries from the last 7 days. b) Mean bowel function: patient's assessment, at each study visit, of bowel function during the last 7 days prior to each visit. Mean bowel function was calculated from the mean of the three 0-100 NAS scores: ease of defecation (0=easy/no difficulty, 100=severe difficulty), feeling of incomplete bowel evacuation (0=not at all, 100=very strong), and judgment of constipation (0=not at all, 100=very strong). Secondary efficacy variables of interest included among others: c) Global assessment of efficacy, tolerability and preference. […] Tolerability was measured using the same 0 to 7 numerical analogue scale.

[2] = tested on: experimental human pain model, healthy volunteers; experiment: Intensity estimates of phasic (CO2) pain, Example 4; type: in vivo; conditions: 70% CO2; 45 mg naloxone with 20 mg oxycodone
Protocol: In the first 20 minutes, 40 phasic CO2-stimuli were applied (20 stimuli at a concentration of 70% and 20 at a concentration of 60%, interstimulus interval 30 s). In response to these stimuli, pain-related potentials and subjective intensity estimates were recorded. Subsequently, tonic pain was induced for 16 minutes and subjects had to rate the intensity of the dull, burning pain.
(§1) CO2-stimuli were mixed in a constantly flowing air stream with controlled temperature (36.5° C.) and humidity (80% relative humidity) presented to the left nostril (stimulus duration 200 ms, interstimulus interval 30 s). […] During intervals between phasic stimuli subjects performed a simple tracking task on a video screen. Using a joystick, they had to keep a small square inside a larger one that randomly moved around.
Within 3-4 seconds after presentation of each CO2 stimulus, subjects compared the perceived intensity to a standard stimulus (70% v/v CO2) presented at the beginning of the first session of each trial day. […] The intensity of the standard stimulus was defined as 100 Estimation Units (EU). The mid-time of a session was regarded as time of measurement. Intensity estimates of the CO2 stimuli (60% and 70%) were evaluated separately for each concentration. On a trial day, the ratings of each post-treatment session were evaluated relative to base line values. […]

[3] = tested on: bowel function of pain patients on oxycodone with need for laxatives; conditions: for Mean Bowel Function Score, Mean (SD) V3: V3 end of titration; for Mean Bowel Function Score, Mean (SD) V5: V5 end of maintenance
Protocol: as §2
Mean bowel function was calculated for each study visit from the mean of the three NAS values ease/difficulty of defecation, feeling of incomplete bowel evacuation and judgment of constipation.
In addition, two-sided 95% CIs (CI, confidence interval) for the difference in means between the treatment groups were provided. […] These analyses were performed for the ITT and PP populations.
The parameter estimates derived were taken to display a surface plot of the whole dose range investigated. Moreover, a contour plot of the bowel function with a granulation of 10 was performed.

[4] = tested on: experimental human pain model, healthy volunteers; experiment: Pain-related evoked potentials (EEG) after CO2 stimulation of the nasal mucosa, Example 4; type: in vivo; conditions: for Magnitude of reduction of amplitude P1N1 at C4 compared to baseline: 60% CO2
Protocol: This was a single site, single dose, double blind, placebo-controlled, 5-treatment, 5-period, randomized, balanced crossover study in healthy adult male and female subjects. […] Subjects were allocated each of the 5 treatments described in the synopsis according to a random allocation schedule (RAS). There was a 7-day washout period
Analgesic effects were assessed by means of an experimental human pain model based on the chemosomatosensory pain-related cortical potentials (CSSEPs) and pain-ratings after specific phasic nociceptive stimulation of the nasal mucosa with gaseous CO2. In addition, intensity estimates of tonic pain produced by stimulation of the nasal mucosa with dry air at controlled flow and temperature were employed.
Within the present pain model, the following were used as indicators of analgesia: • post-treatment decrease in pain-ratings and/or • post-treatment decrease in amplitudes of pain-related evoked potentials and/or • post-treatment increase in latencies of pain-related evoked potentials, relative to the pretreatment values.
1. Base-to-peak amplitudes P1, N1 and P2, peak-to-peak amplitudes P1 N1 and N1P2 of pain related evoked potentials 2. Latencies P1, N1 and P2 of pain-related evoked potentials 3. Intensity estimates of phasic (C02-) pain 4. Intensity estimates of tonic pain
In the first 20 minutes, 40 phasic CO2-stimuli were applied (20 stimuli at a concentration of 70% and 20 at a concentration of 60%, interstimulus interval 30 s). In response to these stimuli, pain-related potentials and subjective intensity estimates were recorded.
as §1
The EEG was recorded from 5 positions of the international 10/20 system (Cz, C3, C4, Fz and Pz; see FIG. 40) referenced to linked earlobes (A1+A2). Possible eye blink artifacts were monitored from an additional site (Fp2/A1+A2). Stimulus linked EEG segments of 2040 ms duration were sampled with a frequency of 250 Hz (band pass 0.2-30 Hz, pre-stimulus period 512 ms). The recorded analog EEG segments were then converted to digital and filed electronically. The average value for each recording position was separately calculated, discarding all eye blink contaminated records. By this procedure pain-related evoked potentials were obtained in response to the painful CO2 stimuli. Base to peak amplitudes P1, N1 and P2, the peak to peak amplitudes P1 N1 and N1 P2 and the latencies of P1, […] and P2 were measured. Wherever the time of measurement was used in the data analysis, the mid-time of a session was taken. FIG. 40 presents the components of the pain-related evoked potentials.

[5] = tested on: patients with severe chronic pain; experiment: Laxative intake / mean laxative dose, Example 1; type: in vivo, human
Protocol: d) Laxative intake/mean laxative dose, which was calculated from the respective case report forms (CRF) entries. An analysis of the mean laxative dose during the last seven days was performed for patients who took only one laxative during the entire study. Entries from the medication record CRF page were used for all calculations (laxatives were identified by the WHO ATC Code A06A). For laxative intake number of days with laxation during the last 7 days and the percentage of days with laxation during the last 7 days were calculated for each study visit. In addition, the percentage of days with laxation during the whole maintenance phase and during the follow-up phase was calculated.

[6] = oral administration; extensive first-pass-metabolism; cited from earlier work
[7] = tested on: rats physically dependent on oxycodone; experiment: Naloxone-precipitated withdrawal in oxycodone-dependent rats (Gellert-Holtzman global rating, graded and checked signs), Example 5; conditions: i.v.
Protocol: Rats were implanted with Alzet 2ML 1 osmotic minipumps infusing either saline vehicle or oxycodone at 1.5 mg/kg/h for 7 days as described above. […] The complete parametric design for oxycodone-pump implanted rats required testing rats with vehicle:vehicle and oxycodone:vehicle.
Signs of physical dependence were evaluated in rats intravenously administered the drugs, and then immediately placed back in their home cages for a 60-min observation period. […] The table is divided into Graded Signs and Checked Signs, and assigned a weighted factor. The rats were evaluated for these signs during the 60 min observation period, the scores were collected, and a combined Global Score was assigned to each rat. Data were analyzed by combining the graded signs of escape attempts and wet-dog shakes into a single score of Grades Signs during each 15-min interval for 60-min. Checked signs were analyzed during each 15-min interval for 60-min.
The rats were assessed in 15-min intervals for both graded and checked signs for a total of 60 min. The graded signs of escape attempts and wet-dog shakes were tallied, whereas, checked signs such as diarrhea, profuse salivation, chromodactorrhea, etc. were noted as being either absent or present during the 15-min period. Both graded and checked signs were assigned a numeric score based on studies by Gellert and Holtzman (1978), and the total value for each animal was added to provide a global rating.
The incidence of checked signs during opioid withdrawal was also analyzed statistically within each time interval at 0-15, 15-30, 30-45 and 45-60 minutes. The data was analyzed within each time interval using contingency table Person's Chi Square analysis (Sigma Stat Statistical Software, SPSS, Inc.) to evaluate the X2 value. X2 values exceeding the critical value for 7 of 14.1 were considered statistically significant intervals for that checked behavioral sign.

[8] = ITT non-missing, naloxone 10 mg/day + oxycodone 40-80 mg/day
[9] = ITT non-missing, naloxone 20 mg/day + oxycodone 40-80 mg/day
[10] = ITT non-missing, naloxone 40 mg/day + oxycodone 40-80 mg/day
[11] = PP, naloxone 20 mg/day + oxycodone 40-80 mg/day
[12] = PP, naloxone 40 mg/day + oxycodone 40-80 mg/day
[13] = ITT/LOCF, naloxone 10 mg/day + oxycodone 40-80 mg/day
[14] = ITT/LOCF, naloxone 20 mg/day + oxycodone 40-80 mg/day
[15] = ITT/LOCF, naloxone 40 mg/day + oxycodone 40-80 mg/day
[16] = naloxone 10 mg/day + oxycodone 40-80 mg/day
[17] = naloxone 20 mg/day + oxycodone 40-80 mg/day
[18] = naloxone 40 mg/day + oxycodone 40-80 mg/day

C=CCN1CC[C@]23c4c5ccc(O)c4O[C@H]2C(=O)CC[C@@]3(O)[C@H]1C5 [Naloxone, naloxone]
Mean Pain, Mean (SD) V3 [1, 8]: 35.9 (16.3)
Mean Pain, Mean (SD) V3 [1, 9]: 39.8 (18.4)
Mean Pain, Mean (SD) V5 [1, 8]: 37.2 (17.3)
Mean Pain, Mean (SD) V5 [1, 9]: 37.5 (20.5)
Mean Pain, Mean (SD) V5 [1, 10]: 38.7 (17.0)
Mean Pain, Mean (SD) V3 [1, 11]: 40.1 (20.0)
Mean Pain, Mean (SD) V3 [1, 12]: 39.0 (16.1)
Mean Pain, Mean (SD) V5 ([1]; PP, naloxone 10 mg/day + oxycodone 40-80 mg/day): 38.8 (18.4)
Mean Pain, Mean (SD) V5 [1, 11]: 36.1 (19.5)
Mean Pain, Mean (SD) V5 [1, 12]: 38.7 (16.6)
Intensity estimates of phasic pain stimuli, naloxone effect [2]: seemed to antagonize partly the oxycodone effect
Mean Bowel Function Score, Mean (SD) V3 [3, 8]: 53.5 (22.2)
Mean Bowel Function Score, Mean (SD) V3 [3, 9]: 51.3 (21.6)
Mean Bowel Function Score, Mean (SD) V3 [3, 10]: 48.2 (20.6)
Mean Bowel Function Score, Mean (SD) V5 [3, 8]: 40.3 (23.1)
Mean Bowel Function Score, Mean (SD) V5 ([3]; ITT non-missing, naloxone 10 mg/day + oxycodone 40-80 mg/day, listed as naloxone): 40.3 (±23.09) and 40.3 (±23.1)
Mean Bowel Function Score, Mean (SD) V5 [3, 9]: 31.3 (25.8)
Mean Bowel Function Score, Mean (SD) V5 ([3]; ITT non-missing, naloxone 20 mg/day + oxycodone 40-80 mg/day, listed as naloxone): 31.3 (±25.82) and 31.3 (±25.8)
Mean Bowel Function Score, Mean (SD) V5 [3, 10]: 26.1 (25.1)
Mean Bowel Function Score, Mean (SD) V5 ([3]; ITT non-missing, naloxone 40 mg/day + oxycodone 40-80 mg/day, listed as naloxone): 26.1 (±25.08) and 26.1 (±25.1)
Mean Bowel Function Score, Mean (SD) V3 [3, 13]: 53.6 (22.8)
Mean Bowel Function Score, Mean (SD) V3 [3, 14]: 49.9 (23.1)
Mean Bowel Function Score, Mean (SD) V3 [3, 15]: 47.7 (20.5)
Mean Bowel Function Score, Mean (SD) V5 [3, 13]: 40.1 (24.7)
Mean Bowel Function Score, Mean (SD) V5 [3, 14]: 33.2 (28.4)
Mean Bowel Function Score, Mean (SD) V5 [3, 15]: 26.5 (25.7)
Mean (±SD) bowel function ([3]; ITT, Visit 4, naloxone 10 mg/day + oxycodone 40-80 mg/day): 42.1 (±25.53)
Mean (±SD) bowel function ([3]; ITT, Visit 4, naloxone 20 mg/day + oxycodone 40-80 mg/day): 34.2 (±30.04)
Mean (±SD) bowel function ([3]; ITT, Visit 4, naloxone 40 mg/day + oxycodone 40-80 mg/day): 27.9 (±22.68)
Mean (±SD) bowel function ([3]; ITT, end of follow-up (oxycodone only), former 40 mg naloxone group): 42.4 (±23.19)
Mean (±SD) bowel function ([3]; PP, end of maintenance, naloxone 10 mg/day + oxycodone 40-80 mg/day): 39.4 (±23.44)
Mean (±SD) bowel function ([3]; PP, end of maintenance, naloxone 20 mg/day + oxycodone 40-80 mg/day): 29.8 (±29.29)
Mean (±SD) bowel function ([3]; PP, end of maintenance, naloxone 40 mg/day + oxycodone 40-80 mg/day): 29.6 (±28.34)
Magnitude of reduction of amplitude P1N1 at C4 compared to baseline ([4]; 20 mg oxycodone in combination with 5 mg naloxone): 24.5%
Magnitude of reduction of amplitude P1N1 at C4 compared to baseline ([4]; 20 mg oxycodone in combination with 15 mg naloxone): 23.7%
Dose of naloxone PR that does not significantly influence the analgesic effect (EEG) of oxycodone ([4]; based on 20 mg oxycodone PR): below 15 mg
Mean number of days with laxative intake during the last 7 days prior to the end of maintenance [5, 16]: 2.6±3.34
Percentage of days (mean±SD) with laxation during the entire maintenance phase [5, 16]: 36.5±33.50
Mean number of days with laxative intake during the last 7 days prior to the end of maintenance [5, 17]: 2.0±3.14
Percentage of days (mean±SD) with laxation during the entire maintenance phase [5, 17]: 31.3±41.38
Mean number of days with laxative intake during the last 7 days prior to the end of maintenance [5, 18]: 1.6±2.93
Percentage of days (mean±SD) with laxation during the entire maintenance phase [5, 18]: 27.8±41.25
Oral bioavailability [6]: < 3%
Checked signs of withdrawal ([7]; oxycodone-pump rats, 60-min observation): the rats underwent robust withdrawal
Graded withdrawal signs (escape attempts, wet-dog shakes) ([7]; oxycodone-pump rats, first 15-min): robust withdrawal that was short-lasting that ended within the first 15-min
Graded withdrawal signs (escape attempts, wet-dog shakes) ([7]; oxycodone-pump rats, later intervals up to 45- to 60-min): no longer significantly present throughout the remainder of the experiment
Signs of withdrawal ([7]; vehicle-pump rats): no signs of withdrawal were observed
